Experimental data as given in patent publication US20050101674A1, “PPMP as a ceramide catabolism inhibitor for cancer treatment” (priority 2003, published 2005).
Read-outs that look alike come from different tables or passages of the source.

What was measured:
[1] = tested on: SK-N-RA neuroblastoma cells; assay: DIMSCAN cytotoxicity assay in SK-N-RA cells; assay type: cell-based; conditions: combined with 4-HPR, +96 h
Source text: (§1) In the following examples, the DIMSCAN assay is a cell survival assay, not merely an apoptosis assay, and therefore reflects cancer cell killing due to both apoptosis and necrosis. DIMSCAN correlates directly with more traditional clonogenic assays. Moreover, DIMSCAN drug resistance profiles of cell lines correlate with prior patient therapy. DIMSCAN has successfully predicted clinical activity in high-risk neuroblastoma patients for the following new agents: 13-cis-retinoic acid, BSO+L-PAM, and fenretinide. Cytotoxicity assays are performed in 96 well microplates using a semi automated Digital Image Microscopy (DIMSCAN) system that has a dynamic range of greater than 4-5 logs of cell kill. Briefly, following incubation with study drugs, fluorescein diacetate [10 μg/ml (a vital stain)] is added to the microplate and incubated for twenty minutes. Eosin-Y (800 μg/ml) is then added to quench background fluorescence in the medium and non-viable cells. The plates are then read on an inverted microscope with the relative fluorescence of each well determined by the video imaging system software designed for the DIMSCAN system. […]
Survival fraction was measured using a digital imaging fluorescence-based microscopy assay (DIMSCAN) with approximately 5 log sensitivity. […]

[2] = tested on: SK-N-RA neuroblastoma cells; assay: Ceramide and glucosylceramide levels by [3H]-palmitic acid labeling and thin-layer chromatography, SK-N-RA; assay type: cell-based; conditions: for 4-HPR-induced glycosylceramide increase: FIG. 9 right panel; for 4-HPR-induced ceramide level / 4-HPR-induced glucosylceramide level: with 4-HPR 10 μM
Protocol: Assays were performed at +24 h.
SK-N-RA neuroblastoma cells were exposed to drugs at 10 μM concentrations for the time indicated.

[3] = tested on: PC-3 prostate cancer cells; assay: DIMSCAN cytotoxicity assay in PC-3 cells; assay type: cell-based; conditions: PC-3, combined with 4-HPR, +96 h
Source text: as §1, with “system. We have done comparison studies and have shown that the relative fluorescent values obtained by DIMSCAN correlate to cell density (standard counts by trypan blue exclusion) and clonogenicity assays.” for “system.”

[4] = tested on: PC-3 prostate cancer cells; assay: Ceramide by [3H]-palmitic acid labeling and thin-layer chromatography, PC-3; conditions: PC-3, drug 10 μM, +24 h
Protocol: Lipids were assayed by labeling with [^3H]-palmitic acid and thin-layer chromatography at +24 h. […] Synergy assayed by Combination Index (C.I.): synergy, C.I.<1; additive, C.I.=1; antagonism, C.I.>1. Statistical analysis is by student's t-test.

[5] = Plasma levels after intravenous formulations of 4-HPR; assay type: in vivo
[6] = Continuous venous infusion (c.i.v.) of 4-HPR in rats; assay type: in vivo
Source text: Utilizing intravenous formulations, we have directly tested continuous venous infusion (c.i.v.) in rats. […] Accordingly, the anti-tumor activity of 4-HPR will be increased by other agents which modulate the metabolism of ceramide, such as inhibitors of glucosylceramide synthase and 1-O-acylceramide synthase.

[7] = tested on: cell lines of neuroblastoma, PNET/Ewing's sarcoma, breast and lung cancer; assay: 4-HPR ceramide increase in tumor cell lines; assay type: cell-based
Source text: (§2) 4-HPR has been reported to increase Reactive Oxygen Species (ROS) in certain, but not all, solid tumor cell lines and leukemia cell lines in vitro as a mechanism of cytotoxicity. […] We, therefore, have explored alternative mechanisms of 4-HPR cytotoxicity.

[8] = tested on: normal fibroblasts, bone marrow myeloid progenitors, peripheral blood mononuclear cells, EBV-immortalized lymphoblastoid cell line; assay: 4-HPR cytotoxicity in normal and non-malignant cells; assay type: cell-based; conditions: doses cytotoxic to cancer cell lines in vitro
Source text: Having established the potential of high-dose 4-HPR to treat resistant neuroblastoma, in order to investigate the therapeutic index of 4-HPR, we examined the cytotoxicity of 4-HPR in normal and non-malignant cell lines in vitro. […] Accordingly, 4-HPR cytotoxicity is most likely a malignancy-specific event, and high-dose 4-HPR may have an acceptable therapeutic index in vivo.

[9] = tested on: normal fibroblasts, peripheral blood mononuclear cells, EBV-immortalized lymphoid cell line; assay: 4-HPR ceramide in normal and non-transformed cells; assay type: cell-based; conditions: in vitro
Source text: Accordingly, the ability of 4-HPR to increase ceramide by de novo synthesis is most likely a malignancy (transformed phenotype)-specific event. Further, high-dose 4-HPR will have a favorable therapeutic index in vivo. Moreover, second agents that inhibit ceramide catabolism will also have a favorable therapeutic index in combination with 4-HPR, as normal tissues will not increase ceramide in response to 4-HPR.

[10] = tested on: serine palmitoyltransferase; assay: Direct assay of enzymatic activity, serine palmitoyltransferase; assay type: biochemical
Source text: (§3) We have determined in solid tumor and ALL cell lines in vitro, that the ceramide increased by 4-HPR treatment was derived from de novo synthesis.

ceramide synthase = assay: Direct assay of enzymatic activity, ceramide synthase; assay type: biochemical
Source text: as §3

[11] = tested on: six pediatric ALL cell lines; assay: 4-HPR and D,L-threo-PPMP cytotoxicity in ALL cell line panel; assay type: cell-based
[12] = tested on: two neuroblastoma cell lines; assay: Reactive oxygen species in neuroblastoma cell lines; assay type: cell-based
Source text: as §2

[13] = adults, high-dose oral; cited from earlier work
[14] = low-dose 4-HPR; cited from earlier work
[15] = tested on: variety of cancer cell lines; conditions: cancer cell lines in vitro; cited from earlier work
[16] = pediatrics, oral, cited from earlier work
CEM = assay: DIMSCAN cytotoxicity, ALL cell line CEM; assay type: cell-based; conditions: 4-HPR+PPMP 1:1 molar ratio, +96 hours
Source text: as §1, with “system. We have done comparison studies and have shown that the relative fluorescent values obtained by DIMSCAN correlate to cell density (standard counts by trypan blue exclusion) and clonogenicity assays.” for “system.”

MOLT-3 = assay: DIMSCAN cytotoxicity, ALL cell line MOLT-3; assay type: cell-based; conditions: MOLT-3, 4-HPR+PPMP 1:1 molar ratio, +96 hours
Source text: as §1, with “system. We have done comparison studies and have shown that the relative fluorescent values obtained by DIMSCAN correlate to cell density (standard counts by trypan blue exclusion) and clonogenicity assays.” for “system.”

MOLT-4 = assay: DIMSCAN cytotoxicity, ALL cell line MOLT-4; assay type: cell-based; conditions: MOLT-4, 4-HPR+PPMP 1:1 molar ratio, +96 hours
Source text: as §1, with “system. We have done comparison studies and have shown that the relative fluorescent values obtained by DIMSCAN correlate to cell density (standard counts by trypan blue exclusion) and clonogenicity assays.” for “system.”

NALM-6 = assay: DIMSCAN cytotoxicity, ALL cell line NALM-6; assay type: cell-based; conditions: NALM-6, 4-HPR+PPMP 1:1 molar ratio, +96 hours
Source text: as §1, with “system. We have done comparison studies and have shown that the relative fluorescent values obtained by DIMSCAN correlate to cell density (standard counts by trypan blue exclusion) and clonogenicity assays.” for “system.”

SMS-SB = assay: DIMSCAN cytotoxicity, ALL cell line SMS-SB; assay type: cell-based; conditions: 4-HPR+PPMP 1:1, +96 hours
Source text: (§4) In the following examples, the DIMSCAN assay is a cell survival assay, not merely an apoptosis assay, and therefore reflects cancer cell killing due to both apoptosis and necrosis. DIMSCAN correlates directly with more traditional clonogenic assays. Moreover, DIMSCAN drug resistance profiles of cell lines correlate with prior patient therapy. DIMSCAN has successfully predicted clinical activity in high-risk neuroblastoma patients for the following new agents: 13-cis-retinoic acid, BSO+L-PAM, and fenretinide. Cytotoxicity assays are performed in 96 well microplates using a semi automated Digital Image Microscopy (DIMSCAN) system that has a dynamic range of greater than 4-5 logs of cell kill. Briefly, following incubation with study drugs, fluorescein diacetate [10 μg/ml (a vital stain)] is added to the microplate and incubated for twenty minutes. Eosin-Y (800 μg/ml) is then added to quench background fluorescence in the medium and non-viable cells. The plates are then read on an inverted microscope with the relative fluorescence of each well determined by the video imaging system software designed for the DIMSCAN system. We have done comparison studies and have shown that the relative fluorescent values obtained by DIMSCAN correlate to cell density (standard counts by trypan blue exclusion) and clonogenicity assays. The present invention is explained in greater detail in the following non-limiting examples.
(§5) Assayed by DIMSCAN at +96 hours. •=4-HPR; ▪=PPMP; □=4-HPR+PPMP; (1:1 molar ratio).

NALL-1 = assay: DIMSCAN cytotoxicity, ALL cell line NALL-1; assay type: cell-based; conditions: 4-HPR+PPMP 1:1, +96 hours
Source text: as §4, §5

intact cells = conditions: in intact cells; cited from earlier work
ALL cell lines = assay: Glucosylceramide and ceramide in ALL cell lines; conditions: ALL cell lines examined
[17] = tested on: solid tumor and ALL cell lines; assay: Effect of de novo ceramide synthesis inhibitors on 4-HPR-induced ceramide; assay type: cell-based; conditions: in vitro
Source text: as §3

neuroblastoma cell lines = assay: Toxicity of de novo ceramide synthesis inhibitors to neuroblastoma cell lines; assay type: cell-based
[18] = tested on: MCF-7/tet breast cancer cells
Protocol: MCF-7/tet breast cancer cells exposed to ethanol (controls), 4-HPR(H) or 4-HPR+safingol (3:1 ratio)(H+S), without or with preincubation with L-cycloserine (2 mM)(+C) and assayed by DIMSCAN assay at +96 hrs. 4-HPR (•); 4-HPR/L-cycloserine (O); 4-HPR/safingol (3:1)(▾); 4-HPR/safingol/L-cycloserine (∇); L-cycloserine (2 mM) (□).

[19] = rodents, x 10 days; cited from earlier work
[20] = tested on: Ehrlich ascites tumor cells xenografts; conditions: in vivo; cited from earlier work
[21] = in vivo; cited from earlier work
[22] = tested on: human neuroblastoma murine xenograft; assay: Human neuroblastoma murine xenograft models; assay type: in vivo; conditions: combined with 4-HPR

Compound: CCCCCCCCCCCCCCCC(=O)NC(CN1CCOCC1)C(O)c1ccccc1 (single isomer, unassigned) [D-threo-PPMP, D-threo-stereoisomer of 1-phenyl-2-palmitoylamino-3-morpholino-1-propanol]
- synergy of 4-HPR cytotoxicity (in words) [1]: synergizes 4-HPR cytotoxicity more potently than does L-threo-PPMP
- 4-HPR-induced ceramide ([2]; drugs at 10 μM, FIG. 9 left panel, preliminary): increased 4-HPR-induced ceramide more than did L-threo-PPMP
- 4-HPR-induced glycosylceramide increase ([2]; drugs at 10 μM, preliminary): prevented
- Combination Index (C.I.) of cytotoxic synergy with 4-HPR [3]: < 1
- ceramide in 4-HPR-treated cells [4]: increased ceramide

Compound: CC1=C(/C=C/C(C)=C/C=C/C(C)=C/C(=O)Nc2ccc(O)cc2)C(C)(C)CCC1 [4-HPR, N-(4-hydroxyphenyl)retinamide]
- ceramide level ([2]; 4-HPR 10 μM alone, +24 h): modestly increased
- systemic toxicity ([5]; dog, in vivo, iv): minimal systemic toxicity
- 4-HPR plasma levels ([5]; intravenous formulations, rodent and canine models): 50 to 150 µM
- levels of 4-HPR in plasma and tissues [6]: high, sustained levels
- increase of ceramide ([7]; dose- and time-dependent, in vitro, 'up to'): up to 13 fold
- time at which ceramide increase began ([7]; post exposure): less than 2 hrs
- toxicity to normal and non-malignant cells [8]: minimally toxic
- ceramide in normal and non-transformed cells [9]: only minimally increased ceramide
- serine palmitoyltransferase activity [10]: stimulated the activities
- ceramide synthase activity (ceramide synthase): stimulated the activities
- 4-HPR cytotoxicity ([11]; all six tested ALL cell lines in vitro): multi-log cytotoxicity
- Reactive Oxygen Species (ROS) [12]: increased ROS
- recommended 'practical' dose for Phase II studies [13]: 1800 mg/m^2/day
- reduction in premalignant oral lesions (leukoplakia) [14]: 30%
- 4-HPR concentrations that are cytotoxic [15]: 1 to 12 µM
- maximally tolerated dose (MTD) ([16]; 7 days every 3 weeks): 2475 mg/m^2/day
- systemic toxicity ([16]; at MTD): minimal systemic toxicity

Compound: CCCCCCCCCCCCCCCC(=O)NC(CN1CCOCC1)C(O)c1ccccc1 [D,L-erythro-PPMP]
- 4-HPR-induced ceramide level ([2]; +24 h): further increased
- 4-HPR-induced glucosylceramide level ([2]; +24 h): did not affect

Compound: CCCCCCCCCCCCCCCC(=O)NC(CN1CCOCC1)C(O)c1ccccc1 [D,L-threo-PPMP, D,L-threo-(1-phenyl-2-hexadecanoylamino-3-morpholino-1-propanol)]
- synergy of 4-HPR cytotoxicity (in words) [1]: more potently
- 4-HPR-induced ceramide level ([2]; +24 h): even more strongly increased
- 4-HPR-induced glucosylceramide level ([2]; +24 h): prevented glucosylceramide formation
- Combination Index (C.I.) (CEM): 1
- Combination Index (C.I.) (MOLT-3): < 1
- Combination Index (C.I.) (MOLT-4): < 1
- Combination Index (C.I.) (NALM-6): < 1
- Combination Index (C.I.) (SMS-SB; 3 μM): > 1
- Combination Index (C.I.) (SMS-SB; 6 μM): > 1
- Combination Index (C.I.) (SMS-SB; 9 μM): 1
- Combination Index (C.I.) (NALL-1; NALL-1, 3 μM): > 1
- Combination Index (C.I.) (NALL-1; NALL-1, 6 μM): 1
- Combination Index (C.I.) (NALL-1; NALL-1, 9 μM): < 1
- number of ALL cell lines in which 4-HPR cytotoxicity was synergized ([11]; pediatric ALL cell lines): four of six
- activity relative to PDMP (intact cells): 10-20 times
- ceramide (ALL cell lines): increased ceramide
- glucosylceramide formation (ALL cell lines): decreased glucosylceramide formation

Compound: N[C@H]1CONC1=O [L-cycloserine]
- effect on ceramide increase caused by 4-HPR treatment [17]: prevented the increase of ceramide
- toxicity as single agents (neuroblastoma cell lines): proved toxic of themselves
- effect on 4-HPR-induced ceramide [18]: prevented ceramide increase

Compound: CCCCCCCCCCCCCCCC(=O)N[C@@H](CN1CCOCC1)[C@@H](O)c1ccccc1 [L-threo-PPMP]
- 4-HPR-induced glycosylceramide increase ([2]; drugs at 10 μM, preliminary): did not

Compound: CCCCCCCCCC(=O)NC(CN1CCOCC1)C(O)c1ccccc1 (stereo not drawn) [PDMP, 1-phenyl-2-[decanoylamino]-3; morpholino-1-propanol]
- well tolerated dose [19]: ≤ 120 mg/kg/day
- anti-tumor effect [20]: cures
- half-life [21]: approximately 1 hour

Compound: CCCCCCCCCCCCCCC[C@H](O)[C@@H](N)CO [safingol, L-threo-dihydrosphingosine]
- effect on anti-tumor activity of 4-HPR [22]: significantly increase the anti-tumor activity of 4-HPR

Compound: fumonisin B
- effect on ceramide increase caused by 4-HPR treatment [17]: prevented the increase of ceramide
- toxicity as single agents (neuroblastoma cell lines): proved toxic of themselves
